Results on 24 compounds are retold here after US20250312352A1, “GLP-1R MODULATING COMPOUNDS” (Gilead Sciences, Inc., priority 2021, published 2025).

Usually EC50 stands for the midpoint of the concentration-response curve. A lower EC50 goes with higher potency in that assay.

T1 sequence (P43220 24-463): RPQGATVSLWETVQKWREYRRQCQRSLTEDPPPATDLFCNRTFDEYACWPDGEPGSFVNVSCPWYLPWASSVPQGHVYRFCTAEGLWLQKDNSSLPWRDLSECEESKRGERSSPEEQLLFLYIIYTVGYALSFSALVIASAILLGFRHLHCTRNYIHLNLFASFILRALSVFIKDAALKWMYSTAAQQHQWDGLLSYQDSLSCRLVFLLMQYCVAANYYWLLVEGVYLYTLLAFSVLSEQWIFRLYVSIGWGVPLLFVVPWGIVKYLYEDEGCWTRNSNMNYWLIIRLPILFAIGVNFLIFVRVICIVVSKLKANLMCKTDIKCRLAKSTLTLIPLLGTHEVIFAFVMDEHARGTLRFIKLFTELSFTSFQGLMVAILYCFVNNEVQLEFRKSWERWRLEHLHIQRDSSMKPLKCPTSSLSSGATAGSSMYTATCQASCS

The experiment has as its target T1, GLP-1R (Homo sapiens, UniProt P43220).
T1 construct: host or cells: CHO cells
The experiment in a line: GLP-1R activation cAMP assay (Assay 1 or Assay 2). The experiment is classed as cell-based. Particulars: cAMP increase in CHO cells stably expressing GLP-1R; compounds run on one of the two cAMP assays. The essentials:
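CHO cells stably expressing human GLP-1R were incubated 1 h in HBSS/20 mM HEPES/0.1% BSA, then exposed to 10-point agonist dilutions for 30 min at 37 °C. cAMP increase was measured with an HTRF Gs dynamic kit; EC50 from sigmoidal fit of response versus log concentration.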
(Cyclic AMP is a second messenger, typically raised through Gs and lowered through Gi signalling.)
Compound `Cc1cc(Cc2nc3ccc(C(=O)O)cc3n2C[C@@H]2CCO2)c(F)cc1-c1cccc(OCc2ncc(-c3cnn(C(F)F)c3)s2)n1` [Example 331, (S)-2-(4-(6-((5-(1-(difluoromethyl)-1H-pyrazol-4-yl)thiazol-2-yl)methoxy)pyridin-2-yl)-2-fluoro-5-methylbenzyl)-1-(oxetan-2-ylmethyl)-1H-benzo[d]imidazole-6-carboxylic acid] showed an EC50 of 0.58 nM. This lies in the sub-nanomolar range.
The same measure for `CNC(=O)c1csc(COc2cccc(-c3cc(F)c(Cc4nc5ccc(C(=O)O)cc5n4C[C@@H]4CCO4)cc3F)n2)n1` [Example 373, (S)-2-(2,5-difluoro-4-(6-((4-(methylcarbamoyl)thiazol-2-yl)methoxy)pyridin-2-yl)benzyl)-1-(oxetan-2-ylmethyl)-1H-benzo[d]imidazole-6-carboxylic acid]: 0.079 nM; for `NC(=O)c1ccc(COc2cccc(-c3cc(F)c(Cc4nc5ccc(C(=O)O)cc5n4C[C@@H]4CCO4)cc3F)n2)s1` [Example 127, (S)-2-(4-(6-((5-carbamoylthiophen-2-yl)methoxy)pyridin-2-yl)-2,5-difluorobenzyl)-1-(oxetan-2-ylmethyl)-1H-benzo[d]imidazole-6-carboxylic acid]: 3.72 nM.
As to `Cc1cc(Cc2nc3ccc(C(=O)O)cc3n2[C@@H]2COCC2(C)C)c(Cl)cc1-c1cccc(OCc2ncc(C(C)(F)F)s2)n1` [Example 428, (S)-2-(2-chloro-4-(6-((5-(1,1-difluoroethyl)thiazol-2-yl)methoxy)pyridin-2-yl)-5-methylbenzyl)-1-(4,4-dimethyltetrahydrofuran-3-yl)-1H-benzo[d]imidazole-6-carboxylic acid], the EC50 was determined as 3.63 nM.
`O=C(O)c1ccc2nc(Cc3cc(F)c(-c4cccc(OCc5ncc(C#Cc6cnn(C7CC7)c6)s5)n4)cc3F)n(C[C@@H]3CCO3)c2c1` [Example 118, (S)-2-(4-(6-((5-((1-cyclopropyl-1H-pyrazol-4-yl)ethynyl)thiazol-2-yl)methoxy)pyridin-2-yl)-2,5-difluorobenzyl)-1-(oxetan-2-ylmethyl)-1H-benzo[d]imidazole-6-carboxylic acid] yielded an EC50 of 0.44 nM. This EC50 lies about 8.2-fold lower than the previous one.
As for “2-(4-(6-((5-chlorothiazol-2-yl)methoxy)pyridin-2-yl)-2,5-difluorobenzyl)-1-((1-(fluoromethyl)cyclopropyl)methyl)-1H-benzo[d]imidazole-6-carboxylic acid [Example 269]”, the figure is 0.748 nM; as for `O=C(O)c1ccc2nc(Cc3cc(F)c(-c4cccc(OCc5cc6n(n5)CCC6)n4)cc3F)n(C[C@@H]3CCO3)c2c1` [Example 65, (S)-2-(4-(6-((5,6-dihydro-4H-pyrrolo[1,2-b]pyrazol-2-yl)methoxy)pyridin-2-yl)-2,5-difluorobenzyl)-1-(oxetan-2-ylmethyl)-1H-benzo[d]imidazole-6-carboxylic acid], 0.19 nM; as for `COc1nnc(COc2nc(-c3cc(F)c(Cc4nc5ccc(C(=O)O)cc5n4CC4(CF)CC4)c(F)c3F)ccc2F)s1` [Example 368, 1-((1-(fluoromethyl)cyclopropyl)methyl)-2-(2,3,6-trifluoro-4-(5-fluoro-6-((5-methoxy-1,3,4-thiadiazol-2-yl)methoxy)pyridin-2-yl)benzyl)-1H-benzo[d]imidazole-6-carboxylic acid], 0.712 nM.
As for `Cc1nnc(COc2nc(-c3cc(F)c(Cc4nc5c(F)cc(C(=O)O)cc5n4C[C@@H]4CCO4)cc3F)ccc2F)s1` [Example 297, (S)-2-(2,5-difluoro-4-(5-fluoro-6-((5-methyl-1,3,4-thiadiazol-2-yl)methoxy)pyridin-2-yl)benzyl)-4-fluoro-1-(oxetan-2-ylmethyl)-1H-benzo[d]imidazole-6-carboxylic acid], the figure is 0.508 nM; as for “(S)-1-(oxetan-2-ylmethyl)-2-(2,3,6-trifluoro-4-(6-((4-(trifluoromethyl)thiazol-2-yl)methoxy)pyridin-2-yl)benzyl)-1H-benzo[d]imidazole-6-carboxylic acid [Example 376]”, 0.153 nM; as for `Cn1cc(C#Cc2cnc(COc3cccc(-c4cc(F)c(Cc5nc6ccc(C(=O)O)cc6n5C[C@@H]5CCO5)cc4F)n3)cn2)cn1` [Example 155, (S)-2-(2,5-difluoro-4-(6-((5-((1-methyl-1H-pyrazol-4-yl)ethynyl)pyrazin-2-yl)methoxy)pyridin-2-yl)benzyl)-1-(oxetan-2-ylmethyl)-1H-benzo[d]imidazole-6-carboxylic acid], 0.83 nM.
For `CNC(=O)c1cc(Cl)c(COc2cccc(-c3cc(F)c(Cc4nc5ccc(C(=O)O)cc5n4CC4(CF)CC4)c(F)c3F)n2)cn1` [Example 450, 2-(4-(6-((4-chloro-6-(methylcarbamoyl)pyridin-3-yl)methoxy)pyridin-2-yl)-2,3,6-trifluorobenzyl)-1-((1-(fluoromethyl)cyclopropyl)methyl)-1H-benzo[d]imidazole-6-carboxylic acid], a half-maximal response (EC50) required 0.05 nM. Compared with the last compound, the EC50 is about 17-fold lower.
The same measure for `CC1(C)COC[C@H]1n1c(Cc2cc(F)c(-c3cccc(OCc4sc(C#N)cc4F)n3)cc2F)nc2ccc(C(=O)O)cc21` [Example 419, (S)-2-(4-(6-((5-cyano-3-fluorothiophen-2-yl)methoxy)pyridin-2-yl)-2,5-difluorobenzyl)-1-(4,4-dimethyltetrahydrofuran-3-yl)-1H-benzo[d]imidazole-6-carboxylic acid]: 0.096 nM.
The compound `Cn1cc(-c2cnc(COc3cccc(-c4cc(F)c(Cc5nc6ccc(C(=O)O)cc6n5C[C@@H]5CCO5)cc4F)n3)s2)nn1` [Example 89, (S)-2-(2,5-difluoro-4-(6-((5-(1-methyl-1H-1,2,3-triazol-4-yl)thiazol-2-yl)methoxy)pyridin-2-yl)benzyl)-1-(oxetan-2-ylmethyl)-1H-benzo[d]imidazole-6-carboxylic acid] came in with an EC50 of 1.86 nM.
With `O=C(O)c1ccc2nc(Cc3cc(F)c(-c4cccc(OCc5cnc(-c6cnn(C7COC7)c6)cc5F)n4)cc3F)n(C[C@@H]3CCO3)c2c1` [Example 162, (S)-2-(2,5-difluoro-4-(6-((4-fluoro-6-(1-(oxetan-3-yl)-1H-pyrazol-4-yl)pyridin-3-yl)methoxy)pyridin-2-yl)benzyl)-1-(oxetan-2-ylmethyl)-1H-benzo[d]imidazole-6-carboxylic acid], the EC50 was 0.16 nM.
`Cn1cncc1C#Cc1cnc(COc2cccc(-c3cc(F)c(Cc4nc5ccc(C(=O)O)cc5n4C[C@@H]4CCO4)cc3F)n2)c(F)c1` [Example 293, (S)-2-(2,5-difluoro-4-(6-((3-fluoro-5-((1-methyl-1H-imidazol-5-yl)ethynyl)pyridin-2-yl)methoxy)pyridin-2-yl)benzyl)-1-(oxetan-2-ylmethyl)-1H-benzo[d]imidazole-6-carboxylic acid] had an EC50 of 0.184 nM.
As for `O=C(O)c1ccc2nc(Cc3cc(F)c(-c4cccc(OCc5cc6n(n5)CCCC6)n4)cc3F)n(C[C@@H]3CCO3)c2c1` [Example 70, (S)-2-(2,5-difluoro-4-(6-((4,5,6,7-tetrahydropyrazolo[1,5-a]pyridin-2-yl)methoxy)pyridin-2-yl)benzyl)-1-(oxetan-2-ylmethyl)-1H-benzo[d]imidazole-6-carboxylic acid], the figure is 1.93 nM; as for `O=C(O)c1ccc2nc(Cc3cc(F)c(-c4cccc(OCc5ccc(-c6cn(C7CC7)nn6)cc5F)n4)cc3F)n(C[C@@H]3CCO3)c2c1` [Example 214, (S)-2-(4-(6-((4-(1-cyclopropyl-1H-1,2,3-triazol-4-yl)-2-fluorobenzyl)oxy)pyridin-2-yl)-2,5-difluorobenzyl)-1-(oxetan-2-ylmethyl)-1H-benzo[d]imidazole-6-carboxylic acid], 0.08 nM.
As for `O=C(O)c1ccc2nc(Cc3cc(F)c(-c4cccc(OCc5ncc(-c6cnsc6)s5)n4)cc3F)n(C[C@@H]3CCO3)c2c1` [Example 95, (S)-2-(2,5-difluoro-4-(6-((5-(isothiazol-4-yl)thiazol-2-yl)methoxy)pyridin-2-yl)benzyl)-1-(oxetan-2-ylmethyl)-1H-benzo[d]imidazole-6-carboxylic acid], the figure is 0.08 nM; as for `N#Cc1cc(F)c(COc2cccc(-c3cc(F)c(Cc4nc5ccc(C(=O)O)cc5n4C[C@@H]4CCO4)cc3F)n2)s1` [Example 52, (S)-2-(4-(6-((5-cyano-3-fluorothiophen-2-yl)methoxy)pyridin-2-yl)-2,5-difluorobenzyl)-1-(oxetan-2-ylmethyl)-1H-benzo[d]imidazole-6-carboxylic acid], 0.13 nM.
In turn, `O=C(O)c1ccc2nc(Cc3cc(F)c(-c4cccc(OCc5cc(C(F)(F)F)co5)n4)cc3F)n(C[C@@H]3CCO3)c2c1` [Example 18, (S)-2-(2,5-difluoro-4-(6-((4-(trifluoromethyl)furan-2-yl)methoxy)pyridin-2-yl)benzyl)-1-(oxetan-2-ylmethyl)-1H-benzo[d]imidazole-6-carboxylic acid] came in with an EC50 of 0.32 nM.
The same measure for `O=C(O)c1ccc2nc(Cc3cc(F)c(-c4cccc(OCc5nc6c(s5)CCC6)n4)cc3F)n(C[C@@H]3CCO3)c2c1` [Example 332, (S)-2-(4-(6-((5,6-dihydro-4H-cyclopenta[d]thiazol-2-yl)methoxy)pyridin-2-yl)-2,5-difluorobenzyl)-1-(oxetan-2-ylmethyl)-1H-benzo[d]imidazole-6-carboxylic acid]: 0.109 nM; for `O=C(O)c1ccc2nc(Cc3cc(F)c(-c4cccc(OCc5nnc(C#CC6CC(F)(F)C6)s5)n4)cc3F)n(C[C@@H]3CCO3)c2c1` [Example 330, (S)-2-(4-(6-((5-((3,3-difluorocyclobutyl)ethynyl)-1,3,4-thiadiazol-2-yl)methoxy)pyridin-2-yl)-2,5-difluorobenzyl)-1-(oxetan-2-ylmethyl)-1H-benzo[d]imidazole-6-carboxylic acid]: 0.431 nM.
The same measure for `Cn1cc(Cl)c(COc2cccc(-c3cc(F)c(Cc4nc5ccc(C(=O)O)cc5n4C[C@@H]4CCO4)cc3F)n2)n1` [Example 78, (S)-2-(4-(6-((4-chloro-1-methyl-1H-pyrazol-3-yl)methoxy)pyridin-2-yl)-2,5-difluorobenzyl)-1-(oxetan-2-ylmethyl)-1H-benzo[d]imidazole-6-carboxylic acid]: 9.4 nM.
